Test results: patent US20180036289A1 (Gilead Sciences, Inc., priority 2016, published 2018)

Tests used:
Assay type in all cases: cell-based
COLO 829 = assay: Cell proliferation assay (ATPlite), drug with vs without cobicistat; conditions: COLO 829 cell line; 120 hours incubation
How it was run: (§1)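 Duplicate wells per concentration; nine 3.16-fold steps from 3.16×10^−5 M downward to 3.16×10^−9 M. Compound added on day 1 after seeding, then 120 h incubation and ATPlite luminescence. Four-parameter logistic fitting of %-growth versus untreated gave IC50.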

Jurkat E6.1 = assay: as above; conditions: Jurkat E6.1 cell line; 120 hours incubation
How it was run: as §1

LS 174T = assay: as above; conditions: LS 174T cell line; 120 hours incubation
How it was run: as §1

NCI-H460 = assay: as above; conditions: NCI-H460 cell line; 120 hours incubation
How it was run: as §1

RKO = assay: as above; conditions: RKO cell line; 120 hours incubation
How it was run: as §1

SUP-T1 = assay: as above; conditions: SUP-T1 cell line; 120 hours incubation
How it was run: as §1

cell lines tested = assay: Cell proliferation assay, summary across all cell lines and drugs; conditions: comparison among the six primary drugs
Description: All cell lines were obtained from the American Type Culture Collection (ATCC) Manassas, Va. (US). Master and working cell banks (MCB and WCB) were prepared by subculturing in ATCC-recommended media and freezing protocols (www.atcc.org). Cell line stocks for the assays were prepared from the WCB. The MCB, WCBs and assay stocks were prepared within respectively 3, 6 and 9 passages of the ATCC vial.
Solid powders of reference compounds were weighed on a calibrated balance and dissolved in 100% DMSO. DMSO samples were stored at room temperature. At the day of the experiment, the compound stock was diluted in 3.16 fold steps in 100% DMSO to obtain a 9-point dilution series. This was further diluted 31.6 times in 20 mM sterile Hepes buffer pH 7.4. A volume of 5 μl was transferred to the cells to generate a test concentration range from 3.16×10^−5M to 3.16×10^−9 M in duplicate. The final DMSO concentration during incubation was […] in all wells.
An assay stock was thawed and diluted in its ATCC recommended medium and dispensed in a 384-well plate, depending on the cell line used, at a concentration of 200-3200 cells per well in 45 μl medium. For each used cell line the optimal cell density is used. The margins of the plate were filled with phosphate-buffered saline. Plated cells were incubated in a humidified atmosphere of 5% CO2 at 37° C. After 24 hours, 5 μl of compound dilution was added and plates were further incubated for another 120 hours. After 120 hours, 25 μl of ATPlite 1Step™ (PerkinElmer) solution was added to each well, and subsequently shaken for 2 minutes. After 10 minutes of incubation in the dark, the luminescence was recorded on an Envision multimode reader (PerkinElmer).
IC50s were calculated by non-linear regression using IDBS XLfit 5. The percentage growth after 120 h (%-growth) was calculated as follows: 100%×(luminescencet=120h/luminescenceuntreated,t=120h). This was fitted to the ^10log compound concentration (conc) by a 4-parameter logistics curve: %−growth=bottom+(top−bottom)/(1+10^(log IC50-conc)*hill)), where hill is the Hill-coefficient, and bottom and top the asymptotic minimum and maximum cell growth that the compound allows in that assay.

Compound: CC(=O)O[C@@]12CO[C@@H]1C[C@H](O)[C@@]1(C)C(=O)[C@H](O)C3=C(C)[C@@H](OC(=O)[C@H](O)[C@@H](NC(=O)OC(C)(C)C)c4ccccc4)C[C@@](O)([C@@H](OC(=O)c4ccccc4)[C@H]21)C3(C)C [docetaxel]
- Fold change in IC50 (IC50 [Drug + Cobicistat]/IC50 [Drug]) (COLO 829): 3.7 fold
- Fold change in IC50 (IC50 [Drug + Cobicistat]/IC50 [Drug]) (Jurkat E6.1): 2.2 fold
- Fold change in IC50 (IC50 [Drug + Cobicistat]/IC50 [Drug]) (LS 174T): 2.8 fold
- Fold change in IC50 (IC50 [Drug + Cobicistat]/IC50 [Drug]) (NCI-H460): 2.1 fold
- Fold change in IC50 (IC50 [Drug + Cobicistat]/IC50 [Drug]) (RKO): 3.8 fold
- Fold change in IC50 (IC50 [Drug + Cobicistat]/IC50 [Drug]) (SUP-T1): 4.5 fold
- extent of boosting by cobicistat (cell lines tested): boosted to the greatest extent

Compound: CC[C@]1(O)C[C@H]2CN(CCc3c([nH]c4ccccc34)[C@@](C(=O)OC)(c3cc4c(cc3OC)N(C=O)[C@H]3[C@@](O)(C(=O)OC)[C@H](OC(C)=O)[C@]5(CC)C=CCN6CC[C@]43[C@@H]65)C2)C1 [vincristine]
- Fold change in IC50 (IC50 [Drug + Cobicistat]/IC50 [Drug]) (COLO 829): 4.4 fold
- Fold change in IC50 (IC50 [Drug + Cobicistat]/IC50 [Drug]) (Jurkat E6.1): 2.8 fold
- Fold change in IC50 (IC50 [Drug + Cobicistat]/IC50 [Drug]) (LS 174T): 2.5 fold
- Fold change in IC50 (IC50 [Drug + Cobicistat]/IC50 [Drug]) (NCI-H460): 3.1 fold
- Fold change in IC50 (IC50 [Drug + Cobicistat]/IC50 [Drug]) (RKO): 3.7 fold
- Fold change in IC50 (IC50 [Drug + Cobicistat]/IC50 [Drug]) (SUP-T1): 3.6 fold
- extent of boosting by cobicistat (cell lines tested): boosted to the greatest extent

Compound: Cc1nc(Nc2ncc(C(=O)Nc3c(C)cccc3Cl)s2)cc(N2CCN(CCO)CC2)n1 [dasatinib]
- Fold change in IC50 (IC50 [Drug + Cobicistat]/IC50 [Drug]) (SUP-T1): 1.4 fold

Compound: CC(=O)O[C@H]1C(=O)[C@@]2(C)[C@H]([C@H](OC(=O)c3ccccc3)[C@]3(O)C[C@H](OC(=O)[C@H](O)[C@@H](NC(=O)c4ccccc4)c4ccccc4)C(C)=C1C3(C)C)[C@]1(OC(C)=O)CO[C@@H]1C[C@@H]2O [paclitaxel]
- Fold change in IC50 (IC50 [Drug + Cobicistat]/IC50 [Drug]) (COLO 829): 4.1 fold
- Fold change in IC50 (IC50 [Drug + Cobicistat]/IC50 [Drug]) (Jurkat E6.1): 2.5 fold
- Fold change in IC50 (IC50 [Drug + Cobicistat]/IC50 [Drug]) (LS 174T): 1.8 fold
- Fold change in IC50 (IC50 [Drug + Cobicistat]/IC50 [Drug]) (NCI-H460): 2.0 fold
- Fold change in IC50 (IC50 [Drug + Cobicistat]/IC50 [Drug]) (RKO): 3.3 fold
- Fold change in IC50 (IC50 [Drug + Cobicistat]/IC50 [Drug]) (SUP-T1): 3.5 fold

Compound: COc1cccc2c1C(=O)c1c(O)c3c(c(O)c1C2=O)C[C@@](O)(C(=O)CO)C[C@@H]3O[C@H]1C[C@H](N)[C@H](O)[C@H](C)O1 [doxorubicin]
- Fold change in IC50 (IC50 [Drug + Cobicistat]/IC50 [Drug]) (COLO 829): 3.8 fold
- Fold change in IC50 (IC50 [Drug + Cobicistat]/IC50 [Drug]) (Jurkat E6.1): 2.5 fold
- Fold change in IC50 (IC50 [Drug + Cobicistat]/IC50 [Drug]) (LS 174T): 3.6 fold
- Fold change in IC50 (IC50 [Drug + Cobicistat]/IC50 [Drug]) (NCI-H460): 2.0 fold
- Fold change in IC50 (IC50 [Drug + Cobicistat]/IC50 [Drug]) (RKO): 2.9 fold
- Fold change in IC50 (IC50 [Drug + Cobicistat]/IC50 [Drug]) (SUP-T1): 2.0 fold

Compound: CC[C@]1(O)C[C@@H]2CN(CCc3c([nH]c4ccccc34)[C@@](C(=O)OC)(c3cc4c(cc3OC)N(C)[C@H]3[C@@](O)(C(=O)OC)[C@H](OC(C)=O)[C@]5(CC)C=CCN6CC[C@]43[C@@H]65)C2)C1 [vinblastine]
- Fold change in IC50 (IC50 [Drug + Cobicistat]/IC50 [Drug]) (COLO 829): 6.3 fold
- Fold change in IC50 (IC50 [Drug + Cobicistat]/IC50 [Drug]) (Jurkat E6.1): 2.5 fold
- Fold change in IC50 (IC50 [Drug + Cobicistat]/IC50 [Drug]) (LS 174T): 3.4 fold
- Fold change in IC50 (IC50 [Drug + Cobicistat]/IC50 [Drug]) (NCI-H460): 3.4 fold
- Fold change in IC50 (IC50 [Drug + Cobicistat]/IC50 [Drug]) (RKO): 3.6 fold
- Fold change in IC50 (IC50 [Drug + Cobicistat]/IC50 [Drug]) (SUP-T1): 3.0 fold
- extent of boosting by cobicistat (cell lines tested): boosted to the greatest extent
